Usually EC50 stands for the concentration at which the effect is half-maximal.

One data set concerns the target T1, human ALX receptor (Homo sapiens, UniProt P25090).
T1 construct: expressed in transfected cells; host or cells: HEK293 (HEK293-hALXR-Gα16)
T1 sequence (P25090 1-351): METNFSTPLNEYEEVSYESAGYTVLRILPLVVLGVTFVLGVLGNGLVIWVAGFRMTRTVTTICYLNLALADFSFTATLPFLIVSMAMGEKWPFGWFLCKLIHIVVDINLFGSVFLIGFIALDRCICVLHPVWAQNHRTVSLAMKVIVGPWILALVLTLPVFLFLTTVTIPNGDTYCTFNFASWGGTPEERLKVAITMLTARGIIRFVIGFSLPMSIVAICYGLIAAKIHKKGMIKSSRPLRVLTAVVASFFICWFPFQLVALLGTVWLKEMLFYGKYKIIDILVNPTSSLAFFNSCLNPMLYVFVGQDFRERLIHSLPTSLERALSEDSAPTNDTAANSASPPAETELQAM
Nature of the data set: FLIPR assay (ALX receptor), intracellular calcium measurements in HEK293-hALXR-Gα16 cells. It counts as cell-based. To be noted: median of n replications, normalized to WKYMVm 10 nM, read-out: EC50 (agonistic activity with respect to the ALX receptor). On the procedure:
FLIPR Assay (ALX Receptor)
(§1) Intracellular Calcium Measurements:
(§2) Cells expressing recombinant human ALX receptor and the G-protein Gα16 (HEK293-hALXR-Gα16) were grown to 80% confluency in Growing Medium (GM). Cells were detached from culture dishes with a cell dissociation buffer (Invitrogen, 13151-014), and collected by centrifugation at 1,000 rpm at rt for 5 min in Assay Buffer (AB) (equal parts of Hank's BSS (Gibco, 14065-049) and DMEM without Phenol Red (Gibco, 11880-028)). After 60 min incubation at 37° C. under 5% CO2 in AB supplemented with 1 μM Fluo-4 (AM) (Invitrogen, F14202) and 20 mM HEPES (Gibco, 15630-056), the cells were washed and resuspended in AB. They were then seeded onto 384-well FLIPR assay plates (Greiner, 781091) at 50,000 cells in 70 μl per well and sedimented by centrifugation at 1,000 rpm for 1 min. Stock solutions of test compounds were made up at a concentration of 10 mM in DMSO, and serially diluted in AB to concentrations required for activation dose response curves. WKYMVm (Phoenix Peptides) was used as a reference agonist. […] Changes in fluorescence were monitored before and after the addition of test compounds at lex=488 nm and lem=540 nm. […]

Data set [1] is described as follows: Plasma protein binding assay (Rapid Equilibrium Dialysis), rat. It is filed as in vitro ADME. Particulars: 1 μM, dialysis 4 h at 37° C., pH 7.4. (In equilibrium dialysis only unbound substance equilibrates across the membrane.)
Data set [2] is described as follows: Plasma stability assay (stability in serum), human. It counts as in vitro ADME. Particulars: pH 7.4, 37° C., 1 μM compound; for remaining concentration at Tlast: Tlast 6 h. As for the experimental part:
(§3) Rat or human serum adjusted at pH 7.4 with lactic acid or ammonium hydroxide, were equilibrated at 37° C. under orbital shaking in an incubator containing 5% CO2. The reaction was initiated by the addition of 1 μM of compounds (1 μl of 1 mM stock solution in DMSO in 999 μl of plasma). At 0.01 h, 0.25 h, 0.5 h, 1 h, 2 h, 4 h and 6 h aliquots (30 μl) were transferred in a 96 well plate containing 90 μl MeOH placed on ice to stop the reaction. After vortexing for 20 min at 1400 rpm on an Eppendorf thermomixer, the plates were centrifuged at 3220 g for 20 min at 4° C. and the supernatants were analyzed with LC-MS/MS. Calibration samples in serum containing 0.1% of dichlorvos (2,2-dichlorovinyl-dimethyl-phosphate) were prepared and analysed in parallel to the incubation samples to allow the quantification. Half lives (T1/2) in hours were then calculated. In addition the remaining concentration of the respective compound after time Tlast relative to the concentration at the beginning has been determined (table 3).

Data set [3] in a line: Plasma protein binding assay (Rapid Equilibrium Dialysis), human. It counts as in vitro ADME. To be noted: 1 μM, dialysis 4 h at 37° C., pH 7.4. On the procedure:
Plasma Protein Binding Assay
Compounds were added to human plasma adjusted at pH 7.4 with lactic acid or ammonium hydroxide (final concentration 1 μM) and dialyzed with RED (Rapid Equilibrium Dialysis) devices against Phosphate Buffered Saline (0.1M sodium Phosphate and 0.15 M sodium chloride) 0.1 M pH 7.4 for 4 h at 37° C. in an incubator containing 5% CO2. Following dialysis, an aliquot of plasma and buffer were diluted with an equal volume of the opposite matrix to nullify the matrix effect and a calibration was prepared in the mixed matrix. Aliquots of samples and calibrations (30 μl) were transferred in a 96 well plate containing 90 μl MeOH to precipitate the proteins. After vortexing for 20 min at 1400 rpm on an Eppendorf thermomixer, the plates were centrifuged at 3220 g for 20 min at 4° C. and the supernatants were analyzed with LC-MS/MS. Concentrations of analyte were used for the calculation of the fraction bound to plasma. Propranolol [(±)-1-isopropylamino-3-(1-naphthyloxy)-2-propanol], a reference compound, was run in parallel.

In the next data set the target is T2, human FPR1 receptor (Homo sapiens, UniProt P21462).
T2 construct: expressed in transfected cells; host or cells: HEK293 (HEK293-hFPR1-Gα16)
T2 sequence (P21462 1-350): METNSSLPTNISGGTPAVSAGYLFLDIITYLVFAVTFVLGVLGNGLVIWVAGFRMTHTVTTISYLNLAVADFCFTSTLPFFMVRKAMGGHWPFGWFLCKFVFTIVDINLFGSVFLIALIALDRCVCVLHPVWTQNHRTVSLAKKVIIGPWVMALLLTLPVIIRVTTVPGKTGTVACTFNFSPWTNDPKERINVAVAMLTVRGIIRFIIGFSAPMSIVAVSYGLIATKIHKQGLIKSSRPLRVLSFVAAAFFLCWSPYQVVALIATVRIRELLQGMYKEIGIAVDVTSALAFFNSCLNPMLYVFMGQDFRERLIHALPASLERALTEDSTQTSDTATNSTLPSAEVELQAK
The data set can be described thus: FLIPR assay (FPR1 receptor), intracellular calcium measurements in HEK293-hFPR1-Gα16 cells. It is filed as cell-based. Particulars: median of n replications, normalized to WKYMVm 10 nM, read-out: EC50 (agonistic activity with respect to the FPR1 receptor). On the procedure: FLIPR Assay (FPR1 Receptor)
as §1
as §2, with “FPR1” for “ALX”, “(HEK293-hFPR1-Gα16)” for “(HEK293-hALXR-Gα16)”
A general note: A change in cytosolic calcium serves as a functional read-out for many receptors and channels.

A short description of data set [4]: Plasma stability assay (stability in serum), rat. It is filed as in vitro ADME. Particulars: pH 7.4, 37° C., 1 μM compound; for remaining concentration at Tlast: Tlast 6 h. On the procedure:
as §3

Turning to “(1S,2R,3R,4R)—N^2—((4-(1,1-Difluoroethyl)oxazol-2-yl)methyl)-N^3-(trans-3-fluoropiperidin-4-yl)spiro[bicyclo[2.2.1]heptane-7,1′-cyclopropane]-2,3-dicarboxamide [Example 1]”, the 50% effective concentration (EC50) at human ALX receptor is 6.6 nM; on human FPR1 receptor, greater than 6000 nM. For the same substance, the values for the Plasma protein binding in data set [1] and in data set [3] were 50.7% and 54.8%, respectively. Also, the “remaining concentration at Tlast” value is given as 97% in data set [2] and greater than 100% in data set [4]. The T1/2 in data set [2] and in data set [4] was greater than 6 h in each case.

As to “(1S,2R,3R,4R)—N^2—((4-(1,1-Difluoroethyl)oxazol-2-yl)methyl)-N^3-(trans-3-fluoropiperidin-4-yl)spiro[bicyclo[2.2.1]heptane-7,1′-cyclopropane]-2,3-dicarboxamide [Example 2]”, the figures for the half-maximal effective concentration (EC50) at human ALX receptor and at human FPR1 receptor were 3.6 nM and greater than 7000 nM, respectively. The Plasma protein binding came to 47.7% in data set [1] and 63.8% in data set [3]. Further, the “remaining concentration at Tlast” value in data set [2] and in data set [4] was greater than 100% in each case. The T1/2 in data set [2] and in data set [4] was greater than 6 h in each case.
